Experimental findings from ChEMBL document CHEMBL4483862, “Open-source discovery of chemical leads for next-generation chemoprotective antimalarials” (2018) are described below.

The assay concerns Plasmodium berghei. The assay can be described thus: Luciferase/luciferin-expressing antifolate-resistant parasites were used to infect a culture of HepG2 cells that were pre-incubated with compounds. Infected hepatocytes emit light due to the luciferase reaction. Assay results are presented as the percent inhibition of light emission compared to control. […]. It counts as functional. To be noted: sporozoite; for IC90: read-out: LUCIFERASE INFECTION ASSAY - IC90.

[1] abbreviates: read-out: LUCIFERASE INFECTION ASSAY - IC50.

What is called IC50 is the concentration that gives 50% inhibition. The IC90 is the concentration at which the effect reaches the 90% level.

Bounds are passed on as bounds.

In the case of `CC(Sc1nc2ccsc2c(=O)n1C)c1ccc(F)cc1` (centres undefined), the 90% effect concentration (IC90) is above 10 µM. Moreover, where the note is “PBLUC_HILL_SLOPE 11.9, PBLUC_R_SQUARED 0.0437, read-out: LUCIFERASE INFECTION ASSAY - IC50”, the IC50 is above 10 µM.

With `CC(C)c1ccc(NC(=O)N2CCc3nc(NCc4cccc(Oc5ccccc5)c4)ncc3C2)cc1`, the IC90 was above 6.69 µM. Besides, under setting [1], the 50% inhibitory concentration (IC50) is above 6.69 µM.

Turning to `CCCNC(=O)c1c(NC(=O)c2cc(OC)cc(OC)c2)nc2ccccn12`, the IC90 is above 8.63 µM. In addition, where the note is “PBLUC_HILL_SLOPE 11.4, PBLUC_R_SQUARED 0.597, read-out: LUCIFERASE INFECTION ASSAY - IC50”, the IC50 was determined as 7.32 µM.

Consider `CC1CSC(N(C(=O)COc2ccccc2F)c2ccc(Cl)cc2)=N1` (centres undefined), for which the concentration for an effect of 90% (IC90) was above 10 µM. Moreover, under setting [1], the IC50 is above 10 µM.

With `COc1cc(/C=C(/C(=O)OCC(=O)NC2CCCCC2C)c2ccc(-c3ccccc3)cc2)cc(OC)c1OC` (centres undefined), the IC90 was 3.8 µM. For the setting “HEPG2TOX_HILL_SLOPE 6.06, HEPG2TOX_R_SQUARED 0.736, PBLUC_HILL_SLOPE 16.1, PBLUC_R_SQUARED 0.664, read-out: LUCIFERASE INFECTION ASSAY - IC50”, the IC50 was 3.32 µM.

Consider `CC(C)(C)NCC(O)CON=C1c2ccccc2-c2ccccc21` (centres undefined), for which the IC90 was above 10 µM. Further, the IC50 (PBLUC_HILL_SLOPE 12, PBLUC_R_SQUARED 0.408, read-out: LUCIFERASE INFECTION ASSAY - IC50) was determined as 9.17 µM.

`C/C=C/C=C/C(=O)Nc1ccc(Nc2ccccc2)cc1`: the IC90 worked out at 5.63 µM. In addition, the IC50 (HEPG2TOX_HILL_SLOPE 12.3, HEPG2TOX_R_SQUARED 0.699, PBLUC_HILL_SLOPE 454, 10.1, PBLUC_R_SQUARED 0.588, 0.566, read-out: LUCIFERASE INFECTION ASSAY - IC50) came out at 5.17 µM.

Turning to `CC(C)N1/C(=C/c2ccc3c(c2)OCCO3)C(=O)c2ccccc2S1(=O)=O`, the 90% effect concentration (IC90) was above 8.56 µM. Further, for the setting “HEPG2TOX_HILL_SLOPE 4.1, HEPG2TOX_R_SQUARED 0.916, PBLUC_HILL_SLOPE 3.33, PBLUC_R_SQUARED 0.555, read-out: LUCIFERASE INFECTION ASSAY - IC50”, the IC50 amounted to 5.07 µM.

For the compound `Cc1ccccc1-c1ccc(CN2CCC3(CC2)C(=O)N(Cc2cccnc2)C(=O)N3C)cc1`, the concentration for an effect of 90% (IC90) worked out at 2.76 µM. The IC50 under setting [1] turned out to be 2.36 µM.

Consider `CCN(CC)c1ccc(C(=O)NNS(=O)(=O)c2c(F)cc(F)c(Cl)c2F)cc1`, for which the IC90 is above 10 µM. For the setting “HEPG2TOX_HILL_SLOPE 9.38, HEPG2TOX_R_SQUARED 0.741, PBLUC_HILL_SLOPE 14.6, PBLUC_R_SQUARED 0.427, read-out: LUCIFERASE INFECTION ASSAY - IC50”, the IC50 was 9.22 µM.

For the compound `CCN(CC)S(=O)(=O)c1cc(NC(=O)C2CCN(c3ncnc4sc(C)c(C)c34)CC2)ccc1Cl`, the IC90 was found to be 3.98 µM. Further, the IC50 (HEPG2TOX_HILL_SLOPE 2.3, HEPG2TOX_R_SQUARED 0.823, PBLUC_HILL_SLOPE 13, PBLUC_R_SQUARED 0.57, read-out: LUCIFERASE INFECTION ASSAY - IC50) was 3.36 µM.

As for `O=C(/C=C/c1ccc(N2CCCCC2)c([N+](=O)[O-])c1)c1ccc(O)cc1`, the IC90 is above 10 µM. Also, the 50% inhibitory concentration (IC50) under setting [1] was 9.61 µM.

Take `O=C(CNc1ccccc1-c1ccccc1)NCC(F)(F)F`: the IC90 was above 10 µM. Besides, under setting [1], the IC50 was above 10 µM.

Consider `CNc1ccccc1C(=O)N/N=C/c1cc(Cl)cc(Cl)c1O`, for which the concentration for an effect of 90% (IC90) was above 9.76 µM. Besides, the IC50 (HEPG2TOX_HILL_SLOPE 2.97, HEPG2TOX_R_SQUARED 0.147, PBLUC_HILL_SLOPE 9.98, PBLUC_R_SQUARED 0.459, read-out: LUCIFERASE INFECTION ASSAY - IC50) was above 9.76 µM.

For `COc1cc2c(cc1OC)C(c1cccc(C(F)(F)F)c1)CC(=O)N2` (centres undefined), the IC90 is above 9.39 µM. Besides, the IC50 under setting [1] is above 9.39 µM.

For the compound `C/C(=N\NC(=S)Nc1cccc(C(F)(F)F)c1)c1cc(Cl)cc(Cl)c1O`, the IC90 is above 7.82 µM. Besides, the IC50 (PBLUC_HILL_SLOPE 20.9, PBLUC_R_SQUARED 0.295, read-out: LUCIFERASE INFECTION ASSAY - IC50) was 7.78 µM.

`N#Cc1cc(NC(=O)c2cccc(Cl)c2)ccc1Sc1cccc(C(F)(F)F)c1`: the IC90 was above 7.62 µM. Moreover, the IC50 under setting [1] was above 7.62 µM.

In the case of `O=C(Nc1cccc(Cl)c1)N1CCN(C(=O)c2ccoc2)CC1`, the concentration for an effect of 90% (IC90) was above 10 µM. Further, the IC50 under setting [1] was above 10 µM.

For the compound `CCCC1NC(=O)N(CC(O)COc2cccc(C(=O)OCC)c2)C1=O` (centres undefined), the concentration for an effect of 90% (IC90) is above 10 µM. For the same compound, under setting [1], the half-maximal inhibitory concentration (IC50) is above 10 µM.

Turning to `Cc1ccc(C(C)(C)CC(C)NCc2ccc(Cl)cc2)o1` (centres undefined), the IC90 is above 10.8 µM. Besides, under setting [1], the IC50 was above 10.8 µM.

On to `Nc1ncc(-c2ccccc2Oc2ccccc2)cc1-c1ccc(O)cc1`, for which the IC90 is above 9.31 µM. Moreover, the IC50 (FFLUC_HILL_SLOPE 1.5, FFLUC_R_SQUARED 0.249, PBLUC_HILL_SLOPE 4.63, PBLUC_R_SQUARED 0.261, read-out: LUCIFERASE INFECTION ASSAY - IC50) was found to be 6.66 µM.

Take `O=C(NCCCC(=O)N1CCC(c2ccc(O)cc2)CC1)c1ccsc1`: the IC90 is above 10 µM. Besides, under setting [1], the IC50 is above 10 µM.

For the compound `Cc1ccc2nc(NC(=O)c3cn(C)nc3-c3ccc4c(c3)OCCCO4)sc2c1`, the IC90 is above 10 µM. Also, under setting [1], the IC50 was above 10 µM.

As to `CC(N)c1csc(NC(=O)c2cccnc2Oc2ccccc2)n1` (centres undefined), the IC90 stood at 5.22 µM. In addition, under setting [1], the IC50 is 3.09 µM.

Regarding `CCN(CC)S(=O)(=O)c1ccc(OC(C)C)c(NC(=O)C2=CN3CCS(=O)(=O)N=C3C=C2)c1`, the IC90 stood at 4.52 µM. Moreover, the IC50 (PBLUC_HILL_SLOPE 11.8, PBLUC_R_SQUARED 0.349, read-out: LUCIFERASE INFECTION ASSAY - IC50) stood at 3.75 µM.

As for `CCOc1ccc(N2C(=O)c3ccccc3C(C=NNc3ccc(S(=O)(=O)N(CC)CC)cc3[N+](=O)[O-])C2=O)cc1` (centres undefined), the IC90 is above 10 µM. Also, under setting [1], the IC50 was above 10 µM.

Consider `Cn1c(N)c(C(=O)COC(=O)c2ccccc2NCCC2=CCCCC2)c(=O)n(C)c1=O`, for which the IC90 is above 10 µM. Moreover, the IC50 under setting [1] is above 10 µM.
